Paper PMC3954757, “Novel Potent Imidazo[1,2-a]pyridine-N-Glycinyl-Hydrazone Inhibitors of TNF-α Production: In Vitro and In Vivo Studies” (PLoS ONE, 2014)
Values joined by “and” are separate entries in the source; they are usually repeats but may differ in a detail not shown here. Equal values may be shown once.

Key:
p38α MAPK = p38α MAPK (Homo sapiens, UniProt Q16539); experiment: p38α MAPK activity, nonradioactive immunosorbent assay; assay type: biochemical
Description: Because the novel N-acylhydrazone derivatives 1 were designed based on the p38α MAPK inhibitor BIRB-796 (3), some of them were evaluated for their in vitro capacity to inhibit p38α MAPK activity at a concentration of 10 µM.
*This assay was performed as described by Goettert MR, Graeser, Laufer SA (2010) Optimization of a nonradioactive immunosorbent assay for p38 alpha mitogen-activated protein kinase activity. Anal Biochem 406: 233–234.

[1] = test system: murine peritoneal macrophages; experiment: Cell viability by MTT assay; assay type: cell-based, mouse; settings: for IC50: Mus musculus, Peritoneal macrophage, MTT cytotoxicity, concentration range 0.1–100 µM; for Selectivity Index (SI): SI = cytotoxicity IC50/anti-TNF-α IC50
Description: (§1) The peritoneal macrophage were obtained and plated as described above. The cells were incubated with the vehicle or compounds for 20 hours when was added 200 µL of RPMI medium containing 0.5 mg/mL MTT […] (3-(4,5-dimethylthiazol-2-yl)-2,5-diphenyltetrazolium bromide) followed by 4 hour of incubation at 37°C in a 5% CO2 atmosphere. After incubation supernatants were discarded and 200 µL DMSO (dimethylsulfoxide) were added to solubilize the MTT-formazan crystals. The optical density was measured in a microplate reader at 490 nm. The control groups consisted of cells with medium plus vehicle used to dissolve the substances and was considered as 100% of viable cells. Results are expressed as percentage of viable cells when compared with control groups.

[2] = Cell viability by MTT assay; assay type: cell-based, mouse; settings: mouse, peritoneal macrophages; 10 µM; MTT; compared to vehicle (DMSO)
Description: as §1

TNF-α production [3] = experiment: LPS-induced TNF-α production in culture of mice peritoneal macrophage (ELISA); settings: Mus musculus; for inhibition at 10 µM: 24 h, read-out: TNF-α % inhibition at 10 µM; for IC50: read-out: TNF-α IC50
Description: BALBc mice received thyoglicollate 3% (1 mL/mice; i.p.) and 3 days later the peritoneal cavities were washed with RPMI 1640 culture medium (Sigma, USA, supplemented with 10% fetal bovine serum). The peritoneal macrophages were plated onto 96-wells plate (30.000 cells/well) for 1 hour at 37°C in a humidified 5% CO2 atmosphere. Then, macrophages were incubated with the vehicle or compounds and 1 hour later stimulated with LPS(100 ng/mL) for 24 hours when the supernatants were collected to evaluate TNF-α production by ELISA kit (B&D Bioscience, USA).

IFN-γ production = experiment: Subcutaneous air pouch (SAP) model, IFN-γ in exudate; assay type: in vivo, mice; settings: oral
Description: (§2) We also measured the levels of the cytokines interferon-γ (IFN- γ) and interleukin 1β (IL-1β).
(§3) Figure 5 Effect of compound 1i on IL-1β and IFN-γ production. Twenty-four hours prior to carrageenan (1%) injection into the subcutaneous air pouch (SAP), animals were pretreated by oral administration with different doses of a solution of 1i. The results are presented as the mean ± S. D. (n = 6–10) of each cytokine (ng/mL). Statistical significance was calculated by ANOVA followed by Bonferroni’s test. * indicates p<0.005 for the comparison of 1i -treated mice with the vehicle-treated group; # indicates p<0.005 for the comparison of vehicle-treated mice with the PBS-treated group.
(§4) The experimental protocol was similar to that described by Romano and colleagues (1997) with several modifications described by Raymundo and colleagues (2011). The animals received a dorsal subcutaneous injection of sterile air (10 mL) on three alternate days to induce the SAP. On the sixth day, animals received a subcutaneous injection of sterile carrageenan suspension (1%; 1 mL). Mice were pre-treated with vehicle (Polysorbate 80), 1i (3, 10, 30 and 100 µmol/kg) or dexamethasone (1.5 µmol/kg, i.p.) 1 h before carrageenan injection into the SAP. The control group received an injection of sterile PBS (1 mL) into the SAP. Animals were sacrificed 24 h after carrageenan injection. The cavity was washed with 1 mL of sterile PBS. Exudates were collected, centrifuged at 11,000 rpm for 10 min at 4°C and TNF-α accumulated was quantified. The cytokines quantification was done by enzyme-linked immunosorbent assay (ELISA) according to the manufacturer’s instructions (B&D, USA). The results are expressed as pg/mL of each cytokine. Animals were sacrificed after an exposition to a saturated carbon dioxide atmosphere in an appropriate gas chamber.

IL-1β production = experiment: Subcutaneous air pouch (SAP) model, IL-1β in exudate; assay type: in vivo, mice; settings: oral
Description: as §2, §3, §4

TNF-α production [4] = experiment: Subcutaneous air pouch (SAP) model, TNF-α in exudate; assay type: in vivo, mice; settings: 1i oral pre-treatment, carrageenan 1% SAP
Text: Because compound 1i provided a better balance between the IC50 value for TNF-α production and cellular toxicity in vitro, we evaluated its effects in the subcutaneous air pouch (SAP) model, an in vivo model of inflammation and TNF production, [28].
as §3, with “Figure 4” for “Figure 5”, “on TNF-α” for “on IL-1β and IFN-γ”, “of TNF-α (pg/mL).” for “of each cytokine (ng/mL).”
as §4

Sequence of p38α MAPK (Q16539 whole entry): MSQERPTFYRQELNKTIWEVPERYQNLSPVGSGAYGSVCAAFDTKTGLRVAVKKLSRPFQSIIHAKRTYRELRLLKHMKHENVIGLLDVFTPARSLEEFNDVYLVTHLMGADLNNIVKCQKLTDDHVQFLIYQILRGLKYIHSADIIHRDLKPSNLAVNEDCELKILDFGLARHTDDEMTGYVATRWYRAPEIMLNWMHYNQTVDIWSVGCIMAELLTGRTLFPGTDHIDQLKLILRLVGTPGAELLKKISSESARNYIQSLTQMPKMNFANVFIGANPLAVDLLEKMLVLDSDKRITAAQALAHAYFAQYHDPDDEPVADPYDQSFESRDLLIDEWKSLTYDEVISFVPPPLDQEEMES

SMILES | melting point | inhibition at 10 µM (p38α MAPK) [%] | IC50 (TNF-α production [3]) [µM] | IC50 [1] [µM] | Selectivity Index (SI) [1] | viability at 20 h, 10 µM [2] [%] | inhibition at 10 µM (TNF-α production [3]) [%] | other results
CC(C)(C)c1nc2ccccn2c1NCC(=O)N/N=C/c1ccc(OCCN2CCOCC2)c2ccccc12 [Compound 1a, (E)-2-(2-tert-butylimidazo[1,2-a]pyridin-3-ylamino)-N’-((4-(2-morpholinoethoxy)naphthalen-1-yl)methylene)acetohydrazide] | 135 to 137 °C | 11.8 | 0.62 | 6.9 | 11.1 | 20.1 | 95.3 | –
O=C(CNc1c(-c2ccccc2)nc2ccccn12)N/N=C/c1ccc(OCCN2CCOCC2)c2ccccc12 [Compound 1b, (E)-N’-((4-(2-morpholinoethoxy)naphthalen-1-yl)methylene)-2-(2-phenylimidazo [1,2-a]pyridin-3-ylamino)acetohydrazide] | 105 to 108 °C | 6.5 | 0.34 | 14.7 | 43.2 | 78.4 | 77.3 | –
O=C(CNc1c(-c2ccccc2)nc2ccccn12)N/N=C/c1ccc(OCCN2CCOCC2)cc1 [Compound 1c, (E)-N’-(4-(2-morpholinoethoxy)benzylidene)-2-(2-phenylimidazo[1,2-a]pyridin-3-ylamino)acetohydrazide] | 169 to 171 °C and 167 to 169 °C | 22.6 | – | – | – | 100 | 18.3 | –
O=C(CNc1c(-c2ccccc2)nc2ccccn12)N/N=C/c1ccc(O)cc1 [Compound 1d, (E)-N’-(4-hydroxybenzylidene)-2-(2-phenylimidazo[1,2-a]pyridin-3-ylamino) acetohydrazide] | 273 to 275 °C | – | 3.67 | – | – | 100 | 56.7 | –
O=C(CNc1c(-c2ccccc2)nc2ccccn12)N/N=C/c1ccc(Cl)cc1 [Compound 1e, (E)-N’-(4-chlorobenzylidene)-2-(2-phenylimidazo[1,2-a]pyridin-3-ylamino) acetohydrazide] | 122 to 124 °C and 120 to 122 °C | – | 3.05 | – | – | 100 | 53.8 | –
CC(C)(C)c1nc2ccccn2c1NCC(=O)N/N=C/c1ccc(OCCN2CCOCC2)cc1 [Compound 1h, (E)-2-(2-tert-butylimidazo[1,2-a]pyridin-3-ylamino)-N’-(4-(2-morpholinoethoxy)benzylidene)acetohydrazide] | – | – | – | – | – | 100 | 2.8 | –
C[S+]([O-])c1ccc(-c2nc(-c3ccncc3)c(-c3ccc(F)cc3)[nH]2)cc1 (stereo not drawn) [SB-203580, reference compound] | – | – | – | – | – | 44.3 | 90 | –

Second part, led by results:

melting point | inhibition at 10 µM (p38α MAPK) [%] | IC50 (TNF-α production [3]) [µM] | SMILES | IC50 [1] [µM] | Selectivity Index (SI) [1] | viability at 20 h, 10 µM [2] [%] | inhibition at 10 µM (TNF-α production [3]) [%] | other results
138 to 141 °C | – | – | O=C(CNc1c(-c2ccccc2)nc2ccccn12)N/N=C/c1ccccc1 [Compound 1f, (E)-N’-benzylidene-2-(2-phenylimidazo[1,2-a]pyridin-3-ylamino)acetohydrazide] | – | – | 100 | 29.3 | –
230 to 232 °C | – | – | CC(C)(C)c1nc2ccccn2c1NCC(=O)N/N=C/c1ccccc1 [Compound 1g, (E)-N’-benzylidene-2-(2-tert-butylimidazo[1,2-a]pyridin-3-ylamino)acetohydrazide] | – | – | 100 | 5.6 | –
232 to 234 °C | – | 0.21 | CC(C)(C)c1nc2ccccn2c1NCC(=O)N/N=C/c1ccc(Cl)cc1 [Compound 1i, (E)-2-(2-tert-butylimidazo[1,2-a]pyridin-3-ylamino)-N’-(4-chlorobenzylidene) acetohydrazide] | 21.7 | 103.3 | 73.3 | 78 | inhibition of IFN-γ (IFN-γ production; 3 µmol/kg): 83.7%; inhibition of IFN-γ (IFN-γ production; 10 µmol/kg): 83%; inhibition of IFN-γ (IFN-γ production; 30 µmol/kg): 82.8%; inhibition of IFN-γ (IFN-γ production; 100 µmol/kg): 82.4%; reduction in IL-1β (IL-1β production; 3 µmol/kg): 81%; reduction in IL-1β (IL-1β production; 10 µmol/kg): 69.5%; reduction in IL-1β (IL-1β production; 30 µmol/kg): 74.7%; reduction in IL-1β (IL-1β production; 100 µmol/kg): 65.7%; reduction of TNF-α production (TNF-α production [4]; 3 µmol/kg): 96.8%; reduction of TNF-α production (TNF-α production [4]; 10 µmol/kg): 90.6%; reduction of TNF-α production (TNF-α production [4]; 30 µmol/kg): 97.3%; reduction of TNF-α production (TNF-α production [4]; 100 µmol/kg): 95.31%
> 300 °C | – | 0.31 | O=C(CNc1c(-c2ccccc2)nc2ccccn12)N/N=C/c1ccc(O)c2ccccc12 [Compound 1j, (E)-N’-((4-hydroxynaphthalen-1-yl)methylene)-2-(2-phenylimidazo[1,2-a]pyridin-3-ylamino)acetohydrazide] | 10.4 | 33.5 | 40 | 90.8 | –
208 to 210 °C | 17.2 | 0.99 | O=C(CNc1c(-c2ccccc2)nc2ccccn12)N/N=C/c1cccc2ccccc12 [Compound 1k, (E)-N’-(naphthalen-1-ylmethylene)-2-(2-phenylimidazo[1,2-a]pyridin-3-ylami-no)acetohydrazide] | 23.5 | 23.7 | 83.2 | 75.8 | –
– | – | 3.6 | CC(C)(C)c1cc(NCC(=O)N/N=C/c2ccc(OCCN3CCOCC3)c3ccccc23)n(-c2ccccc2)n1 [LASSBio-1504 (2), reference compound] | 10.3 | 2.8 | 61.5 | 96.9 | –
